A short description of data set [1]: Saline solubility at 1.00 mg/mL and 0.50 mg/mL (with pH by indicator paper). The data set is classed as physicochemical. An outline of the steps: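 Prodrug was weighed to give 1.00 mg/mL hydroxamate equivalent in saline, vortexed 1 h and centrifuged, and diluted to 0.50 mg/mL if it precipitated. pH was checked by indicator paper. Stability in solution diluted 1:1 with saline was followed by HPLC-UV at 0, 6 and 24 h.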

Data set [2] can be described thus: Saline solubility at 10.00 mg/mL, 5.00 mg/mL and 2.50 mg/mL (with pH by pH meter). The data set is classed as physicochemical. The following applies: saline or isotonic, thermodynamic from solid, concentration expressed as equivalent of Cpd 1, highest tested concentration soluble, read-out: Highest prodrug solubility in saline (equivalent of Cpd 1). The method, then: The following procedures were used
Step 1. Sample preparation. An amount of the compound sample was precisely weighed to correspond to around 10 mg of the hydroxamate of compound 1, taking into account the mass of the leaving group and the salt factor if applicable. The sample was placed in a 16×125 mm glass screw cap tube. Saline was added so that the final concentration of hydroxamate 1 was 10.00 mg/mL. The tube was shaken for 1 hour on a Vortex apparatus then centrifuged at 3000 rpm (1800 rcf) for 5 minutes. If the compound example was soluble (no precipitate formed) then the pH was measured with a pH meter, and the procedure continued to step 2. If a precipitate formed then the sample was diluted with saline so that the final concentration of the hydroxamate of compound 1 became 5.00 mg/mL, and the shaking and centrifuging steps were repeated. If the compound example was soluble (no precipitate formed) then the pH was measured with a pH meter, and the procedure continued to step 2. If a precipitate formed then the sample was diluted with saline so that the final concentration of the hydroxamate of compound 1 became 2.50 mg/mL, and the shaking and centrifuging steps were repeated. If the compound example was soluble (no precipitate formed) then the pH was measured with a pH meter, and the procedure continued to step 2

The nature of data set [3]: Conversion of prodrugs to compound 1 in human plasma. The class given is in vitro ADME. Conditions: human plasma (Na-Heparin treated), 37° C. On the procedure: (§1) Step 1. Sample preparation. A quantity of blank human plasma (Na-Heparin treated) was incubated at 37° C. for 30 minutes. An amount of the compound sample was precisely weighed to correspond to around 5.00 mg of the hydroxamate of compound 1, taking into account the mass of the leaving group and the salt factor if applicable. The sample was placed in a 16×125 mm glass screw cap tube. The incubated blank human plasma was added so that the final concentration of hydroxamate 1 was 1.00 mg/mL. The sample was sonicated for 30 seconds, shaken for 30 seconds on a Vortex apparatus, and run through the HPLC procedure of Step 2 to get a time point zero value. The samples were stored in an incubator at 37° C., and the HPLC analysis of Step 2 was repeated in 30 minutes and 1 hour.
(§2) Step 2. Protein precipitation and HPLC analysis of plasma. A 50 μL aliquot of plasma was taken in a 1.5 mL Eppendorf vial, to which was added 200 μL of MeCN. The vial was capped and shaken on a Vortex apparatus for 30 seconds, then centrifuged at 13000 rpm (15700 rcf) for five minutes. When centrifuging was complete, 100 μL of the supernatant was placed in an injection vial containing an insert, to which was added 100 μL of 0.1% formic acid in water. The vial was capped and shaken on a Vortex apparatus for 30 seconds, and the contents were injected into the HPLC-UV instrument, and a comparison was made of the retention time, peak areas and level of degradation (if any) using the GDADI50 method.
Step 3. Reference sample preparation. An amount of the compound sample was precisely weighed to correspond to around 5.00 mg of the hydroxamate of compound 1, taking into account the mass of the leaving group and the salt factor if applicable. The sample was placed in a 16×125 mm glass screw cap tube. A quantity of MeCN/H2O 50/50 v/v was added so that the final concentration of hydroxamate 1 was 1.00 mg/mL. An injection vial was filled with 100 μL of this sample stock solution and 900 μL of a solution of 40/60 MeCN/0.1% formic acid in water. The vial was capped and the contents were injected into the HPLC-UV instrument, and a comparison was made of the retention time, peak areas and level of degradation (if any) using the GDADI50 method.

A short description of data set [4]: Conversion of prodrugs to compound 1 in mouse plasma. The data set is classed as in vitro ADME. The following applies: mouse plasma (Na-Heparin treated). On the procedure: as §1, with “blank mouse” for “blank human”, “repeated at” for “repeated in”, “1 hour” for “1 hour.”
as §2

Counter-ions that a name gives are not always drawn.

On to `NCCCC[C@H](N)C(=O)NCCC(=O)ONC(=O)Cc1ccc(CCCCc2ccccc2)cc1` [Compound 14, (S)-2,6-Diamino-N-(3-oxo-3-(2-(4-(4-phenylbutyl)phenyl)acetamidooxy)propyl)hexanamide di-hydrochloride], for which the “pH at 1.00 mg/mL of MGCD290 in saline” value in data set [1] (final concentration of hydroxamate 1 1.00 mg/mL, pH indicator paper) is 4-4.5. In addition, the solubility at 1 h in data set [1] (saline or isotonic, thermodynamic from solid, 1.00 mg/mL as hydroxamate 1, shaken 1 hour, centrifuged, soluble = no precipitate formed, read-out: Soluble at 1.00 mg/mL of MGCD290 (Y/N)) was over 1000 µg/mL; in data set [2] it was 10000 µg/mL. For the same molecule, the “Prodrug loss at 0.5 hr” value in data set [3] (0.5 hr) stood at 100%; in data set [4] (37° C., 0.5 hr), 100%. In addition, the “Prodrug loss at 1 hr” value was determined as 100.0% in data set [3] (1 hr) and 100% in data set [4] (37° C., 1 hr). Also, the “Prodrug solubility in plasma” value in data set [4] (equivalent to 1.00 mg/mL of compound 1, * = Plasma quickly became cloudy) was “Yes*”.

For the origin of these results see patent publication US20150203517A1, “Prodrugs of Compounds that Enhance Antifungal Activity and Compositions of Said Prodrugs” (priority 2014, published 2015).
